Converted amounts (≈) assume the structure as drawn.
What was measured:
E. coli ATCC 8739 = test: Microbroth dilution assay; type: cell-based; conditions: Escherichia coli, ATCC8739, E. coli ATCC 8739
Procedure: The minimum inhibitory concentration (MIC) and minimum bactericidal/fungicidal concentration (MBC/MFC) of the tested compounds were determined by the microbroth dilution technique using 96-well plates based on the methodology described in the EUCAST (European Committee on Antimicrobial Susceptibility Testing) standards. Reference and clinical strains of Gram-positive (Staphylococcus aureus ATCC 6538, Staphylococuccus aureus MRSA 6347) and Gram-negative (Escherichia coli ATCC 8739) bacteria, and yeast (Candida albicans ATCC 10231, Candida glabrata ATCC 2001) were used for the assay. The studies were carried out in the Mueller–Hinton (MH) broth for bacteria and RPMI 1640 broth + MOPS (Sigma-Aldrich, Poland) buffer in the case of yeast. The dry test samples were dissolved in DMSO (dimethyl sulfoxide), resulting in a final concentration of 15 mg/mL, and then diluted in a geometric progression. Ampicillin (Sigma-Aldrich, Poland) acted as a control sample (512 to 4 µg/mL) for bacteria and ketoconazole (128 to 1 µg/mL) (Sigma-Aldrich, Poland) acted as a control sample for yeast. The cultures of microorganisms were prepared by transferring cells from the stock cultures to tubes with the appropriate broth and incubated with agitation in an aerobic atmosphere for 18 ± 2 h at 35 ± 1 °C; next, they were diluted to achieve an optical density corresponding to 5 × 105 (bacteria) or 2 × 105 (yeast) colony-forming units per mL (cfu/mL). An appropriate media (96 µL), along with the tested compounds with a final concentration range of 300–3.1 µg/mL (4 µL) and next microbial suspension (100 µL) were added to each well. Plates with samples were incubated in adequate conditions described above and microbial growth was assessed. […] (>90%; ketoconazole) but 50% (for other compounds) inhibits visible growth of yeasts. Next, as a control of microbial viability, 100 µL of the samples from each well without growth was inoculated on the MH or RPMI agar plates and incubated for 18 ± 2 h at 35 ± 1 °C and finally, the CFU was counted. The MBC/MFC was determined as the minimum concentration of compounds required to kill 99.9% the organisms.

SKOV-3 cells = test: Cell cycle assay (Muse Cell Analyzer); type: cell-based, human; conditions: SKOV-3, 48 h
Procedure: The SKOV-3 cells (5 × 10^5 cells/well) were seeded and incubated with compound 2i at concentrations of 2, 5, 10, 15, 30, and 60 µg/mL for 48 h. After treatment, Muse Cell Cycle Assay Kit and Muse Cell Analyzer (Merck Millipore, Burlington, MA, USA) were used to analyze the stained cells, according to the manufacturer’s instruction. The results are shown as percentage of the cells in each phase of cell cycle: subG0, G0/G1, S, and G2/M. The experiment was repeated in two independent repeats (in three repetitions).

[1] = system: HeLa, SKOV-3, AGS (and HaCaT) cell lines; test: MTT assay, ranges stated over several cell lines; type: cell-based, human; conditions: for IC50: Homo sapiens
Procedure: The human ovarian SKOV-3, gastric adenocarcinoma AGS, cervical HeLa cell lines and non-cancerous keratinocytes HaCaT were obtained from the American Type Culture Collection (ATCC, Manassas, VA, USA). The cell lines were cultured in McCoy’s Medium, Dulbecco’s Modified Eagle’s Medium/F12, and DMEM, respectively (Merck Millipore, Burlington, MA, USA). Penicillin (100 units/mL), streptomycin ([…]), and 10% (v/v) fetal bovine serum (FBS) were added to all the media. The cells were incubated at 37 °C and 5% CO2.
To estimate the cytotoxic activity of the obtained compounds 2a-i, MTT assay was used. The cells (5 × 10^3 cells/well) were treated with the compounds in a range of concentrations 1–150 µg/mL. […] After 24 h, MTT solution (0.5 mg/mL) was added to the cells. Formazan crystals were dissolved in DMSO and the absorbance was measured with a microtiter plate reader (Epoch, BioTek Instruments, Winooski, VT, USA).

[2] = range over the cancer cell lines HeLa, SKOV-3 and AGS

## C(=C(\C1=NCCN1)n1ccc2ccccc21)/c1ccc2ccccc2c1 [Compound 2i, (Z)-1-[1-(4,5-dihydro-1H-imidazol-2-yl)-2-(naphthalen-2-yl)vinyl]-1H-indole]
E. coli ATCC 8739
  MBC: > 240 µg/mL
E. coli ATCC 8739; read-out: MIC
  MIC: > 240 µg/mL
SKOV-3 cells; 2 µg/mL
  cells in subG0 phase: 28.10 ± 4.49%
SKOV-3 cells; 5 µg/mL
  cells in subG0 phase: 49.00 ± 0.85%
SKOV-3 cells; 10 µg/mL
  cells in subG0 phase: 82.73 ± 1.33%
SKOV-3 cells; 15 µg/mL
  cells in subG0 phase: 91.67 ± 0.57%
SKOV-3 cells; 30 µg/mL
  cells in subG0 phase: 95.30 ± 1.67%
SKOV-3 cells; 60 µg/mL
  cells in subG0 phase: 99.83 ± 0.15%
SKOV-3 cells; 2–60 µg/mL, all concentrations
  cell cycle arrest: strongly induced cell cycle arrest in subG0 phase
[1]; range over HeLa and SKOV-3 cell lines
  IC50: 2.03 to 2.45 µg/mL (≈ 6.02 to 7.26 µM)
[1]; [2]
  IC50: 2.03 to 5.68 µg/mL (≈ 6.02 to 16.8 µM)
  IC50 (range over cell lines): 2.03 to 5.58 µg/mL

Source: paper PMC12562379, “Facile Synthesis of N-vinylindoles via Knoevenagel Condensation: Molecular Features and Biological Activities” (International Journal of Molecular Sciences, 2025)
